# According to publication PMC9229378, “Copper-67-Labeled Bombesin Peptide for Targeted Radionuclide Therapy of Prostate Cancer” (Pharmaceuticals, 2022):
# Legend:
# [1] = tested on: GRPR-positive PC-3 cell line; test: Cell binding and internalization; format: cell-based; conditions: PC-3 cells
# Method: The PC-3 cell line was purchased from ATCC (Manassas, VA, USA), revived from liquid nitrogen storage, and cultured at 37 °C, 5% CO2. PC-3 cells were cultured in media containing DMEM, 10% heat-inactivated fetal bovine serum (FBS) (Gibco, Thermo Fisher Scientific, Inc., Waltham, MA, USA), and 10 mM HEPES.
# A PC-3 cell suspension was prepared in 1X PBS at a concentration of 10^6 cells/100 μL. Eppendorf tubes (in triplicates) were pretreated with 5% bovine serum albumin (BSA) in PBS to block non-specific binding. Tyr^4-BBN, as a blocking agent, was diluted in 5% BSA in PBS. Then, 100 μL of cells and either 20 μg block or PBS 1X were added to each tube. Approximately 100,000 cpm of [^67Cu]Cu-SAR-BBN was added to the tubes. Cells were incubated at 37 °C at moderate speed to prevent cell settling. After each specified time point (30, 60, 120, 240, and 360 min), cells were centrifuged and the supernatant was aspirated from cell pellets, which was followed by two additional rinses with ice-cold PBS. Cells pellets were then collected and counted for activity on a gamma counter. To determine the fraction of internalized radiotracer, cells were treated with 2 × 0.5 mL of 20 mM sodium acetate (pH 4.0) for 2 min to remove surface-bound radioactivity and counted again for activity.
# PC-3 tumors = test: Therapy study in PC-3 tumor-bearing mice; format: in vivo, athymic nude mice
# Method: (§1) To assess the therapeutic potential of [^67Cu]Cu-SAR-BBN, athymic nude mice bearing subcutaneous PC-3 tumors with a tumor size of ~150 mm^3 were randomly assigned into 2 groups (n = 12 mice per group). For treatment, mice were dosed intravenously with three injections of 24 MBq [^67Cu]Cu-SAR-BBN on days 0, 2, and 4, followed by a drug-free week before the injections of 24 MBq on days 14, 16, and 18. The total activity injected corresponded to 144 MBq. The control group was injected via tail vein with six injections of 0.9% saline at the same time points. Body weight and tumor volume (through caliper measurements) were monitored and recorded three times a week. Tumor size was calculated by the following formula: L × W^2/2, where L is the long diameter of the tumor and W is the short diameter of the tumor. […] Any remaining mice at day 54 were euthanized, and tumor volume and survival curves were generated and analyzed to evaluate the efficacy of [^67Cu]Cu-SAR-BBN. Percentage tumor growth inhibition was calculated as 100 × (1 − ΔT/ΔC), where ΔC and ΔT were determined by subtracting the mean tumor volume (in the vehicle control and treated group, respectively) on day 0 of treatment from the mean tumor volume on day 19 (the last day all mice remained in the study). […]
# [2] = format: in vitro ADME, human
# Method: Briefly, 100 µL of the radiolabeled complex was added to 100 µL PBS 1X or human serum (HSA […]) in triplicate. [^67Cu]Cu-SAR-BBN was incubated at 37 °C for 14, 24, 48, 72, and 96 h with moderate agitation. An aliquot (0.5 μL) was withdrawn at each specified time point. Radio-TLCs with a mobile phase of 50 mM DTPA were performed to evaluate the percentage of intact radiolabeled peptides.
# [3] = Treatment-related toxicity (body weight, H&E histology of kidney, pancreas, liver); format: in vivo, athymic nude mice
# Method: as §1
smiles,measurement,setting,value
"CC(C)C[C@H](NC(=O)C[C@H](O)[C@H](CC(C)C)NC(=O)[C@H](Cc1c[nH]cn1)NC(=O)CNC(=O)[C@@H](NC(=O)[C@H](C)NC(=O)[C@H](Cc1c[nH]c2ccccc12)NC(=O)[C@H](CCC(N)=O)NC(=O)[C@@H](Cc1ccccc1)NC(=O)CCOCCOCCOCCOCCNC(=O)CCCC(=O)NC12CNCCNCC(C)(CNCCNC1)CNCCNC2)C(C)C)C(N)=O [[^67Cu]Cu-SAR-BBN, metal not drawn]",bound to the GRPR receptors,[1]; 37 °C,more than 50%
same,internalized into the cells,[1]; 37 °C,about 20%
same,"total bound with blocking (non-specific binding, % of total added radioactivity)",[1]; excess Tyr4-BBN (20 μg block),5.8 ± 0.1%
same,rapid recurrence of tumor needing early sacrifice,PC-3 tumors; 144 MBq over 3 weeks,no animals having a rapid recurrence
same,median survival (time to tumor endpoint of 2500 mm^3),"PC-3 tumors; six i.v. doses of 24 MBq, total 144 MBq, n = 12, study ended day 54, control 34.5 days, p = 0.0015",greater than 54 days
same,free 67Cu in human serum,[2],< 5%
same,"histological changes in kidney, pancreas and liver vs control (H&E)","[3]; mouse, in vivo",no significant histological changes
same,deaths or euthanasia not related to tumor volume,"[3]; treated group, n = 12, censored in the survival analysis","one mouse from the [^67Cu]Cu-SAR-BBN group was euthanized due to tumor ulceration (day 38), and another two died due to unknown causes (day 5 and day 22)"
